The subject of data set [1] is rat. On the set-up: method as in Hicks et al., 2004. Particulars: 50 mg/kg i.v., ref Hicks et al., 2004; cited from earlier work.
In data set [2] the test system is rat. On the set-up: method as in Schmidt-Mutter et al., 1998. Particulars: 300 mg/kg i.p., ref Schmidt-Mutter et al., 1998; cited from earlier work.
Data set [3] has as its system gamma‐butyrolactone‐treated mice. Kind of data set: GBL‐mediated response protection by NCS‐382 in the absence and presence of diclofenac. Type of data set: in vivo. Conditions: mouse.
Procedure: Wild‐type C57/B6 mice (mixed gender, n = 7) were bred in‐house, weaned at day of life (DOL) 21, and randomized to a treatment sequence (Fig. 2). […] Thirty minutes later, mice were given an i.p. injection of GBL (100 mg/kg diluted in PBS) and were placed into a clean round arena (~10 inches in diameter) and were allowed access to food and water. Mice were recorded on a camera operated by Serena acquisition software (recorded for 10 min). At 5 and 10 min following GBL, righting reflex was assessed. These procedures were repeated daily with ~24 h in between sessions. Data file names were coded such that treatments were blinded at the time of video data analysis. During video data analysis, the time of which noticeable loss of motor function or coordination (e.g., “loss of motor function”) was observed, and the time taken for the subject to enter a dissociative state and fall into an unsupported prone position (e.g., “time to loss of motion”) was monitored. Righting reflex was evaluated by placing the mouse in a supine position and the time to return to all four paws was recorded based on the timestamp of the playback video. Data for each treatment group were expressed as the mean and standard deviation, and statistical significance was evaluated using one‐way ANOVA and Tukey post hoc t test (P < 0.05).
Wild‐type C57/B6 mice (mixed gender, n = 7) were bred in‐house, weaned at day of life (DOL) 21, and randomized to a treatment sequence. […] Thirty minutes later, mice were given an i.p. injection of GBL (100 mg/kg in PBS) and were placed into a clean round arena (~10 inches in diameter) and were allowed access to food and water. Mice were recorded on a camera operated by Sirena acquisition software (recorded for 10 min). At 5 and 10 min following GBL, righting reflex was assessed. These procedures were repeated daily with ~24 h in between sessions. Data files names were coded such that video analysis was blinded at the time of data recording.
A further data set concerns pigeon. The arrangement: method as in Koek et al., 2006. Particulars: pigeon, 54, 178, 320, 560 mg/kg, route ns; ref Koek et al., 2006; cited from earlier work.
A short description of data set [4]: NCS‐382–diclofenac interaction study (inhibition of NCS‐382 glucuronidation). Particulars: mouse.
Procedure: In this study, mice (n = 3–4 per group) were assigned (balanced for weight and gender) to one of three treatments and collected at one of three time points (0.5, 1, or 2 h).
In data set [5] the test system is rat. The arrangement: method as in Nava et al., 2001. Particulars: dose n.s., i.p., ref Nava et al., 2001; cited from earlier work.
Data set [6] relates to rat. The arrangement: method as in Snead III, 1996. Conditions: 100-500 mg/kg i.p., ref Snead III, 1996; cited from earlier work.
The subject of data set [7] is rat. On the set-up: method as in Baker et al., 2008. Particulars: rat, 25, 50, 100 mg/kg i.g.; ref Baker et al., 2008; cited from earlier work.
In another data set the test system is mouse. The arrangement: method as in Martellotta et al., 1998. Particulars: 12.5 mg/kg i.p., ref Martellotta et al., 1998; cited from earlier work.
For data set [8], the system named is rat. The arrangement: method as in Colombo et al., 1999. Conditions: 400 mg/kg i.p., ref Colombo et al., 1999; cited from earlier work.
Data set [9] concerns rat. The arrangement: method as in Pedraza et al., 2009. Conditions: 10 mg/kg i.p., ref Pedraza et al., 2009; cited from earlier work.
The nature of data set [10]: Metabolite formation kinetics in MLMs. Type of data set: in vitro ADME. Particulars: mouse liver microsomes. As for the experimental part:
Microsomal incubations were conducted as described above with modifications. […] The K m was calculated using nonlinear regression in Graphpad Prism. Due to the lack of authentic standard and relatively short rate of parent disappearance, the maximum formation velocity (V max) could not be determined for either metabolites.

For a further data set, the target named is GHB receptor. On the set-up: method as in Molnár et al. 2006. Conditions: ref Molnár et al. 2006; cited from earlier work.
A short description of data set [11]: Excretion of NCS‐382 in urine and feces (metabolic cages). Type of data set: in vivo. Conditions: mouse, pooled urine of 3 mice. As for the experimental part:
To ensure sufficient volumes of urine could be collected in each of the 2 h time intervals (baseline, 0–2, 2–4, 4–6, 6–8 h), three mice were dosed simultaneously and their urine and feces pooled for analysis. The total dose in μg administered to the three animals was therefore used to calculate the percent of the dose excreted in the urine pooled from all three mice. Animals were allowed ad libitum access to food and water of which the intake of each was monitored.
Samples (3 μL) were injected onto a Kinetex PFP (50 × 2.1 mm, 1.7 μm particle size) UPLC column and eluted with a binary gradient consisting of water with 0.1% formic acid (mobile phase A) and methanol with 0.1% formic acid (mobile phase B). […] Eluent was directed to waste for the initial 0.4 min then to an ABI Sciex 6500 Qtrap tandem mass spectrometer. […] Where necessary, samples were diluted in blank matrices for analysis.
Pharmacokinetic outcomes were obtained via standard noncompartmental methods using Kinetica (version 5.1, Thermo Fisher Scientific, Waltham, MA). The maximum concentration (C max) was obtained directly from the concentration–time profiles. Area under the concentration–time curve (AUC) from time zero to the last collected time point was determined using the trapezoidal method with linear up/log down interpolation.

Results on one compound are retold here after paper PMC5115179 (Pharmacology Research & Perspectives, 2016).

Like-named read-outs stand apart in the source and are kept apart here.

For the compound `O=C(O)/C=C1\CCCc2ccccc2C1O` (stereo not drawn) [NCS‐382, 6,7,8,9‐tetrahydro‐5‐hydroxy‐5H‐benzo‐cyclohept‐6‐ylideneacetic acid], the “increase in heart rate induced by GHB” value in the data set with rat [1] is on record as “reversed the ↑ in heart rate”. Besides, in the data set on rat [1], the “pressor response induced by GHB” value is “not the pressor response”. Besides, the “reversal of the anxiolytic effect of GHB” value with rat [2] is listed as “The anxiolytic effect of GHB were reversed by the benzodiazepine receptor antagonist, flumazenil, but not by naloxone or NCS-382”. Further, the “time to loss of motor function compared to vehicle control” value in data set [3] (NCS‐382 300 mg/kg with diclofenac 25 mg/kg i.p. 30 min before GBL 100 mg/kg i.p.) is “significantly improved”; in data set [3] (given alone i.p. (NCS‐382 300 mg/kg or diclofenac 25 mg/kg) 30 min before GBL 100 mg/kg i.p.), “trended toward increasing”. In addition, the effects of diazepam result in the data set on pigeon is “GHB, its precursors 1,4-BD and GBL, and NCS-382 did not attenuate the effects of diazepam”. The compound further displayed an AUC(0-t) in [4] (both, in vivo, 300 mg/kg) of 411 µM·h. Also, the “Brain AUC0–2 h [90% CI]” value in data set [4] (treatment NCS‐382 300 mg/kg + Diclofenac 25 mg/kg) was 182 [164–200] ^a nmol/g/tissue*h; in [4] (treatment NCS‐382 300 mg/kg alone), 128 [115–141] nmol/g/tissue*h. Also, the “GHB-induced decrease of hippocampal acetylcholine release” value in the data set on rat [5] is given as “GHB-induced ↓ of hippocampal acetylcholine release is mediated by GABAB receptors, based on ineffective blocking by NCS-382”. Besides, the “two chemically induced models for absence seizures” value in the data set on rat [6] is reported as “NCS-382 was protective against two chemically induced models for absence seizures”. The “GHB's (300 mg/kg) discriminative stimulus effects” value in the data set with rat [7] was “GHB's (300 mg/kg) discriminative stimulus effects were obliterated by the GABAB receptor antagonist, CGP-35348 and slightly attenuated by NCS 382”. For the same compound, the “abuse potential of GHB” value with mouse was “GHB was shown to have abuse potential, which was blocked by NCS-382”. Also, the blood ethanol levels result in the data set on rat [8] is “NCS-382 reduces blood ethanol levels, likely due to a lessened absorption of ethanol from the gastrointestinal tract”. Moreover, the “neurological damage and working-memory impairment induced by low-dose GHB” value in the data set on rat [9] is “NCS-382 prevents both neurological damage and working- memory impairment induced by low-dose GHB”. Moreover, the Km was 29.5 ± 10 µM in data set [10] (120 min, read-out: Km for dehydrogenation) and over 100 µM in data set [10] (saturation not obtained, read-out: Km for glucuronidation). On GHB receptor, the Ki is 1.2 µM. Moreover, the “total dose administered recovered unchanged in the urine over 8 h” value in data set [11] (100 mg/kg) stood at 0.1%; in [11] (300 mg/kg), 1.1%; in data set [11] (500 mg/kg), 3.3%.
